Source: patent US20230095103A1, “COMPOSITIONS AND METHODS CONTAINING REDUCED NICOTINAMIDE RIBOSIDE FOR PREVENTION AND TREATMENT OF LUNG DISEASES AND CONDITIONS” (SOCIETE DES PRODUITS NESTLE S.A., priority 2020, published 2023)
Structures can show the parent of a compound that is named as a salt. Where two headings read alike, the source gives them in different places.

Assays:
adenosine kinase (AK) = target: T1, adenosine kinase (AK) (Mus musculus, UniProt P55264); assay: NRH-induced NAD+ synthesis with adenosine kinase inhibitors in AML12 cells; assay type: cell-based; conditions: for effect of AK inhibitor on the action of NRH (NAD+ synthesis): inhibitor given before NRH treatment
T1 construct: endogenous in cells; host or cells: AML12 cells
T1 sequence (P55264 whole entry): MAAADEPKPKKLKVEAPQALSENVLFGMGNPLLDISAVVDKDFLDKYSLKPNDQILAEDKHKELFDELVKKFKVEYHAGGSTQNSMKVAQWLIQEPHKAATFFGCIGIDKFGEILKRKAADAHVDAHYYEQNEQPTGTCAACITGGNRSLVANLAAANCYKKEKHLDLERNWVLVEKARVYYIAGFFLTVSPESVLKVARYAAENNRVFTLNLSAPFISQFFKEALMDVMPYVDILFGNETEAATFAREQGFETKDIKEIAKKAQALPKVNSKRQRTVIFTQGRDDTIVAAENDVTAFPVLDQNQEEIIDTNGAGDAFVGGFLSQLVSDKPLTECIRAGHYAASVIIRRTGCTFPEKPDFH
Description: AML12 cells were treated with an adenosine kinase inhibitor (5-IT; […]) for 1 hour prior to NRH treatment at the doses indicated. Then, 1 hour later, acidic extracts were obtained to measure NAD^+ levels. All values in the figure are expressed as mean+/−SEM of 3 independent experiments. * indicates statistical difference at p<0.05 vs. the respective vehicle treated group.

[1] = tested on: intracellular NRH, NMNH, NR and NMN; assay: Intracellular NAD-related metabolites after NRH or NR treatment; assay type: cell-based; conditions: for intracellular detection of NRH and NMNH: 5 minutes after treatment
Text: (§1) Levels of NRH and other NAD-related metabolites in biological samples were obtained by using a cold liquid-liquid extraction using a mixture of methanol:water:chloroform in 5:3:5 (v/v), from which the polar phase was recovered for hydrophilic interaction ultra-high performance liquid chromatography mass spectrometry (UHPLC-MS) analysis. The UHPLC consisted of a binary pump, a cooled autosampler, and a column oven (DIONEX Ultimate 3000 UHPLC+ Focused, Thermo Scientific), connected to a triple quadrupole spectrometer (TSQ Vantage, Thermo Scientific) equipped with a heated electrospray ionisation (H-ESI) source. Of each sample, 2 μL were injected into the analytical column (2.1 mm×150 mm, 5 μm pore size, 200 Å HILICON iHILIC®-Fusion(P)), guarded by a pre-column (2.1 mm×20 mm, 200 Å HILICON iHILIC®-Fusion(P) Guard Kit) operating at 35° C. The mobile phase (10 mM ammonium acetate at pH 9, A, and acetonitrile, B) was pumped at 0.25 mL/min flow rate over a linear gradient of decreasing organic solvent (0.5-16 min, 90-25% B), followed by re-equilibration for a total run time of 30 min. The MS operated in positive mode at 3500 V with multiple reaction monitoring (MRM). The software Xcalibur v4.1.31.9 (Thermo Scientific) was used for instrument control, data acquisition and processing. Retention time and mass detection was confirmed by authentic standards.
A path in which NRH would be converted to NMNH, then to NADH and this would be finally oxidized to NAD+.

[2] = Stability of NRH or NR spiked in isolated mouse plasma; assay type: in vitro ADME
Description: (§2) NR degradation to NAM has been proposed as a limitation for its pharmacological efficacy. To evaluate whether NRH was also susceptible to degradation to NAM, we spiked NRH or NR in isolated mouse plasma. […] We also tested the stability of NRH in other matrixes. […] Finally, we also certified NRH stability in water (pH=7, at room temperature) for 48 h.

[3] = Stability in FBS supplemented media; assay type: in vitro ADME
Description: as §2

NRK1 = assay: NAD+ levels in primary hepatocytes from control or NRK1 knockout mice; conditions: after 1 hour of treatment
[4] = assay type: in vivo, mice
Description: 8 week-old C57BI/6NTac mice were orally gavaged with either saline (as vehicle), NR (500 mg/kg) or NRH (500 mg/kg). After 1 hour, liver, skeletal muscle and kidney NAD+ levels were evaluated. All results are expressed as mean+/−SEM of n=5 mice per group. * indicates statistical difference at p<0.05 vs. vs. saline-treated mice. # indicates statistical difference at p<0.05 vs. NR treated mice.
Oral administration of NRH led to very similar results to those observed after IP administration. […] NRH was detectable in plasma 1 h after oral administration. In contrast, NR levels were undetectable at 1 h after NR administration.

[5] = Intraperitoneal injection of NR or NRH in mice: tissue NAD+ and circulating metabolites; assay type: in vivo; conditions: for NAD+ levels in liver, muscle and kidney: mice, IP 500 mg/kg, after 1 h
Description: The above results prompted us to test whether NRH could act as an effective NAD+ precursor in vivo. For this, we first intraperitoneally (IP) injected mice with either NR or NRH (500 mg/kg). […] Importantly, NRH was detectable in circulation after IP injection.

NAMPT = target: T2, NAMPT (Mus musculus, UniProt Q99KQ4); assay: NRH action in the presence of the NAMPT inhibitor FK866; assay type: cell-based; conditions: with FK866, a NAMPT inhibitor
T2 construct: endogenous in cells
T2 sequence (Q99KQ4 whole entry): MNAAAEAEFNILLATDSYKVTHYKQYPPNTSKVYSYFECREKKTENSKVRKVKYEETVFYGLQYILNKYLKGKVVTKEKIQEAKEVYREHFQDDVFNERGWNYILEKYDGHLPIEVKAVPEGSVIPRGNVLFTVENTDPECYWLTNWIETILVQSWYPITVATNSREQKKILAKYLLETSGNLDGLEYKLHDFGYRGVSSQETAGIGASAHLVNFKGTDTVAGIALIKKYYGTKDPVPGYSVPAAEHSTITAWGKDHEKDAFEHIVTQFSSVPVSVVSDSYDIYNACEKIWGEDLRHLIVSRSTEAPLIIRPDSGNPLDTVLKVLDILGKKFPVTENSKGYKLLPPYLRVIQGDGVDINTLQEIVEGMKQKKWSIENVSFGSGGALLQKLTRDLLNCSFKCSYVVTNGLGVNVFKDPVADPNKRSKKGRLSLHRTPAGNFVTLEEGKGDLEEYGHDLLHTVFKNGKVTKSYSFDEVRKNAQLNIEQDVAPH

INS1-cells = assay: NAD+ levels in INS1-cells after NRH treatment; assay type: cell-based
Description: (§3) The ability of NRH to potently increase NAD+ was tested as well in other cell type models.

[6] = design: species or system mice; conditions: mouse, in vivo, 250 mg/kg
Description: 8 week-old C57BI/6NTac mice were orally gavaged with either saline (as vehicle), and NRH (250 mg/kg). After 2 hours, liver, skeletal muscle and kidney NRH levels were evaluated. All results are expressed as mean+/−SEM of n=4 mice per group, as areas under the signal by LC-MS analysis, corrected by total protein amount of tissue.

[7] = tested on: Salmonella enterica serovar Typhimurium; assay: Anti-bacterial response of monocyte-derived macrophages against Salmonella (CFU counts); assay type: cell-based; conditions: 0.01 mM NRH for 42 h prior to infection, MOI 10
Description: Monocyte-derived macrophages were treated with 0.01 mM NRH for 42 h prior to infection with Salmonella enterica serovar Typhimurium for 1 h using a multiplicity of infection of 10. Following infection, macrophages were treated with gentamicin for 2 h before cell lysis. Values show absolute colony forming unit (CFU) counts with each dot representing one donor and each line representing paired samples. Graphs show pooled data of 2 independent experiments with 2-3 donors/experiment.

3T3 fibroblasts = assay: NAD+ levels in 3T3 fibroblasts after NRH treatment; assay type: cell-based
Description: as §3

[8] = tested on: equilibrative nucleoside transporters (ENTs); assay: NRH-induced NAD+ synthesis under ENT blockade with NBTI; assay type: cell-based; conditions: in the presence of NBTI
Text: In order to understand the exact path by which NRH synthesizes NAD+, we initially evaluated whether NRH, could be transported into the cell by equilibrative nucleoside transporters (ENTs).

[9] = assay type: physicochemical
Description: as §2

C2C12 myotubes = assay: NAD+ levels in C2C12 myotubes after NRH treatment; assay type: cell-based
Description: as §3

AML12 hepatocytes = assay: Intracellular NAD+ levels in AML12 hepatocytes after NRH or NR treatment (dose-response, time course); assay type: cell-based
Text: as §1
Even at such relatively low dose, NRH achieved similar increases in intracellular NAD+ levels to those reached with NR at 50-fold higher concentrations. NRH achieved maximal effects on NAD+ synthesis around the millimolar range, managing to increase intracellular NAD+ levels by more than 10-fold.
NRH actions were also extremely fast (FIG. 3), as significant increases in NAD+ levels were observed within 5 minutes after NRH treatment.

NMNAT = assay: NRH-induced NAD+ synthesis with the NMNAT inhibitor gallotannin; assay type: cell-based
Text: As a follow-up step, NMNAT enzymes could catalyze the transition from NMNH to NADH.

[10] = isolated mouse plasma, 2 h of incubation

Nc1ncnc2c1c(I)cn2[C@@H]1O[C@H](CO)[C@@H](O)[C@H]1O [5-IT, 5-iodotubercidin]
formation of NR and NMN after NRH treatment (adenosine kinase (AK); 5-IT treatment): prevented
effect of AK inhibitor on the action of NRH (NAD+ synthesis) (adenosine kinase (AK)): fully ablated the action of NRH

NC(=O)c1ccc[n+]([C@@H]2O[C@H](CO)[C@@H](O)[C@H]2O)c1 [NR, 1-b-D-ribofuranosyl-3-pyridinecarboxamide salt, reference compound]
intracellular detection of NRH and NMNH [1]: not
generation of NAM in plasma [2, 10]: increase in NAM
levels of the compound in plasma [2, 10]: decayed
degradation to NAM ([3]; FBS supplemented media): occurs
NAD+ levels in NRK1 KO derived primary hepatocytes (NRK1): failed to increase NAD+ levels
circulating NAM after NR treatment relative to NRH treatment ([4]; C57BI/6NTac, mouse, in vivo, po, 1 h): −4 fold
NAD+ levels in liver, muscle and kidney [5]: increased

NC(=O)C1=CN([C@@H]2O[C@H](CO)[C@@H](O)[C@H]2O)C=CC1 [NRH, dihydro-1-beta-D-ribofuranosyl-3-pyridinecarboxamide]
dependence of NRH action on NAMPT (NAMPT): NAMPT-independent
NAD+ levels (INS1-cells): highly elevated NAD+ levels
NRH in liver, kidney and muscle [6]: found intact, in high levels
intracellular detection of NRH and NMNH [1]: could be detected
increase in intracellular NR and NMN ([1]; after NRH treatment, compared with NR): greater than that triggered by NR itself
anti-bacterial macrophage response (CFU counts) [7]: able to augment anti-bacterial macrophage response
generation of NMNH, NADH and NAD+ from NRH (adenosine kinase (AK); upon inhibition of AK, metabolomic analyses): fully blunted
NR production in plasma [2]: did not lead to NR production
NAD+ levels (3T3 fibroblasts): highly elevated NAD+ levels
capacity as extracellular NAD+ precursor under ENT blockade [8]: largely lost its capacity as an extracellular NAD+ precursor
degradation to NAM [3]: did not degrade to NAM
stability in water [9]: 48 h
NAD+ levels (C2C12 myotubes): highly elevated NAD+ levels
effect on hepatic NAD+ levels ([4]; mice, oral administration, compared with NR): more potent effect on hepatic NAD+ levels than NR
NAD+ levels in liver, muscle and kidney [5]: increased
NR in circulation after NRH treatment ([5]; mouse, in vivo, ip): much higher levels than those detected after NR injection itself
NRH in circulation ([5]; mouse, in vivo, ip): detectable
NAM levels in circulation ([5]; mouse, in vivo, ip, 500 mg/kg): only a very mild increase
time to significant increase in NAD+ levels after treatment (AML12 hepatocytes; AML12 hepatocytes, FIG. 3): ≤ 5 min
increase of intracellular NAD+ levels at maximal effect (AML12 hepatocytes; AML12 hepatocytes, around the millimolar range): more than 10 fold
ability to increase intracellular NAD+ (AML12 hepatocytes; AML12 hepatocytes, compared with NR): superior to that of NR
concentration at which NAD+ levels are significantly increased (AML12 hepatocytes; AML12 hepatocytes, dose-response, FIG. 2): 10 µM
NR concentration needed for similar increase in intracellular NAD+, relative to NRH (AML12 hepatocytes; NRH at 10 μM): 50 fold

O=C(OC[C@H]1O[C@@H](OC(=O)c2cc(O)c(O)c(OC(=O)c3cc(O)c(O)c(O)c3)c2)[C@H](OC(=O)c2cc(O)c(O)c(OC(=O)c3cc(O)c(O)c(O)c3)c2)[C@@H](OC(=O)c2cc(O)c(O)c(OC(=O)c3cc(O)c(O)c(O)c3)c2)[C@@H]1OC(=O)c1cc(O)c(O)c(OC(=O)c2cc(O)c(O)c(O)c2)c1)c1cc(O)c(O)c(OC(=O)c2cc(O)c(O)c(O)c2)c1 [gallotannin]
effect of NMNAT inhibitor on NAD+ synthesis after NRH treatment (NMNAT): largely compromised NAD+ synthesis after NRH treatment
NRH action after gallotannin treatment (NMNAT; NRH at maximal doses (0.5 mM)): part of the NRH action remained
NRH action after gallotannin treatment (NMNAT; NRH at submaximal doses): totally blocked

Nc1ncnc2nc(-c3ccc(N4CCOCC4)nc3)cc(-c3cccc(Br)c3)c12 [ABT-702]
effect of AK inhibitor on the action of NRH (NAD+ synthesis) (adenosine kinase (AK)): confirmed
